From PubChem BioAssay (NCI)
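1) Cells in 96-well plates. 2) Compound, 48 h, 5 concentrations. 3) Linear interpolation between surrounding doses. 4) Unreached endpoint = highest concentration. Abbreviation: GI50, concentration required for 50% inhibition of growth. TGI: total growth inhibition.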

What was measured:
Assay in all cases: NCI-60 cell line screen, 48 h
[1] = system: A498 renal
[2] = system: A549 NSCLC
[3] = system: ACHN renal
[4] = system: BT-549 breast
[5] = system: CAKI-1 renal
[6] = system: COLO 205 colon
[7] = system: DU-145 prostate
[8] = system: EKVX NSCLC
[9] = system: HCC-2998 colon
[10] = system: HCT-116 colon
[11] = system: HCT-15 colon
[12] = system: HL-60(TB) leukemia
[13] = system: HOP-62 NSCLC
[14] = system: HOP-92 NSCLC
[15] = system: HS 578T breast
[16] = system: IGROV1 ovarian
[17] = system: K-562 leukemia
[18] = system: KM12 colon
[19] = system: LOX IMVI melanoma
[20] = system: M14 melanoma
[21] = system: MALME-3M melanoma
[22] = system: MCF7 breast
[23] = system: MDA-MB-231 breast
[24] = system: MDA-MB-435
[25] = system: NCI-H226 lung
[26] = system: NCI-H23 lung
[27] = system: NCI-H460 lung
[28] = system: NCI-H522 lung
[29] = system: NCI/ADR-RES ovarian
[30] = system: OVCAR-3 ovarian
[31] = system: OVCAR-4 ovarian
[32] = system: OVCAR-5 ovarian
[33] = system: OVCAR-8 ovarian
[34] = system: PC-3 prostate
[35] = system: RPMI-8226 leukemia
[36] = system: RXF 393 renal
[37] = system: SF-268 CNS
[38] = system: SF-295 CNS
[39] = system: SF-539 CNS
[40] = system: SK-MEL-2 melanoma
[41] = system: SK-MEL-28 melanoma
[42] = system: SK-MEL-5 melanoma
[43] = system: SK-OV-3 ovarian
[44] = system: SN12C renal
[45] = system: SNB-75 CNS
[46] = system: SR leukemia
[47] = system: SW-620 colon
[48] = system: T-47D breast
[49] = system: TK-10 renal
[50] = system: U251 CNS
[51] = system: UACC-257 melanoma
[52] = system: UACC-62 melanoma
[53] = system: UO-31 renal

## O=c1ccc2nc(C(F)(F)F)nn(-c3ccccc3)c-2c1
[1]
  GI50: 14.1 µM
  TGI: 27.2 µM
[2]
  GI50: 19.3 µM
  TGI: 39 µM
[3]
  GI50: 1.18 µM
  TGI: 2.45 µM
[4]
  GI50: 12.3 µM
  TGI: 24.8 µM
[5]
  GI50: 1.47 µM
  TGI: 2.8 µM
[6]
  GI50: 2.32 µM
  TGI: 5.77 µM
[7]
  GI50: 1.77 µM
  TGI: 3.17 µM
[8]
  GI50: 13.6 µM
  TGI: 27.1 µM
[9]
  GI50: 15.4 µM
  TGI: 29.7 µM
[10]
  GI50: 1.61 µM
  TGI: 3.15 µM
[11]
  GI50: 1.45 µM
  TGI: 3.42 µM
[12]
  GI50: 1.21 µM
  TGI: 4.31 µM
[13]
  GI50: 7.95 µM
  TGI: 27.7 µM
[14]
  GI50: 1.41 µM
  TGI: 2.97 µM
[15]
  GI50: 12.2 µM
  TGI: 80.4 µM
[16]
  GI50: 11.9 µM
  TGI: 25.5 µM
[17]
  GI50: 2.11 µM
  TGI: 9.14 µM
[18]
  GI50: 19.6 µM
  TGI: 37.3 µM
[19]
  GI50: 1.59 µM
  TGI: 3.22 µM
[20]
  GI50: 5.8 µM
  TGI: 19 µM
[21]
  GI50: 1.82 µM
  TGI: 3.3 µM
[22]
  GI50: 0.495 µM
  TGI: 4.07 µM
[23]
  GI50: 1.92 µM
  TGI: 5.55 µM
[24]
  GI50: 4.56 µM
  TGI: 16.4 µM
[25]
  GI50: 13.1 µM
  TGI: 30.5 µM
[26]
  GI50: 5.96 µM
  TGI: 22.2 µM
[27]
  GI50: 17.6 µM
  TGI: 36.2 µM
[28]
  GI50: 1.51 µM
  TGI: 3.01 µM
[29]
  GI50: 17.1 µM
  TGI: 64 µM
[30]
  GI50: 1.58 µM
  TGI: 2.95 µM
[31]
  GI50: 1.47 µM
  TGI: 2.83 µM
[32]
  GI50: 15.4 µM
  TGI: 29.1 µM
[33]
  GI50: 4.21 µM
  TGI: 33.9 µM
[34]
  GI50: 10.7 µM
  TGI: 23.7 µM
[35]
  GI50: 4.82 µM
  TGI: 77.5 µM
[36]
  GI50: 1.45 µM
  TGI: 2.8 µM
[37]
  GI50: 15 µM
  TGI: 28.9 µM
[38]
  GI50: 22.7 µM
  TGI: 67.1 µM
[39]
  GI50: 15.8 µM
  TGI: 29.3 µM
[40]
  GI50: 3.63 µM
  TGI: 15.6 µM
[41]
  GI50: 1.7 µM
  TGI: 3.26 µM
[42]
  GI50: 7.8 µM
  TGI: 21.1 µM
[43]
  GI50: 15 µM
  TGI: > 100 µM
[44]
  GI50: 7.31 µM
  TGI: 57.4 µM
[45]
  GI50: 13.3 µM
  TGI: 26.4 µM
[46]
  GI50: 0.999 µM
  TGI: > 100 µM
[47]
  GI50: 1.75 µM
  TGI: 3.71 µM
[48]
  GI50: 1.69 µM
  TGI: 6.62 µM
[49]
  GI50: 1.62 µM
  TGI: 3.09 µM
[50]
  GI50: 13.4 µM
  TGI: 28.6 µM
[51]
  GI50: 1.91 µM
  TGI: 4.05 µM
[52]
  GI50: 5.13 µM
  TGI: 17.9 µM
[53]
  GI50: 1.48 µM
  TGI: 2.9 µM
